Like-named read-outs stand apart in the source and are kept apart here.
Tests used:
Assay type in all cases: cell-based
Micrococcus luteus B-109 = test: Agar-well diffusion, bactericidal activity; settings: Micrococcus luteus
Excerpt: (§1) Plant pathogenic bacterial strains Micrococcus luteus B-109, Pectobacterium atrosepticum 1043, Pectobacterium carotovorum subsp. carotovorum MI, Pseudomonas fluorescens EL-2.1, and Xanthomonas campestris B-610 and the fungal strain Fusarium oxysporum IBPPM 543 were from the Collection of Rhizosphere Microorganisms, IBPPM RAS (WFCC no. 975, WDCM no. 1021) (CM IBPPM, http://collection.ibppm.ru). The pathogenic fungus Phytophthora cactorum VKM F-985, provided by the All-Russian Collection of Microorganisms (VKM) and deposited at the A.E. Favorsky Irkutsk Institute of Chemistry, SB RAS, was also used as a test organism. Bacteria M. luteus, P. carotovorum subsp. carotovorum, P. atrosepticum, and P. fluorescens were grown in a meat–peptone medium (BP), and X. campestris was grown in the medium with glucose, yeast extract, and calcium carbonate (GYCa). Solid media contained Bacto agar (18 g/L); pH was adjusted to 7.2–7.4. All bacterial cultures were grown at 28 °C. The mycelial cultures of F. oxysporum and P. cactorum were grown on a glucose–peptone–yeast (GPY) nutrient medium at 27 °C. For inoculum preparation, both fungal strains were initially grown on the agar GPY in Petri dishes and then transferred into the seed medium by punching out 5 mm of the agar plate culture with a self-designed cutter.
(§2) The antibacterial and antifungal activities of the compounds were explored using the agar-well diffusion method and the technique of mycelial radial growth inhibition. The method of diffusion in agar (measuring the diameter of growth inhibition zones) was used to determine the bactericidal activity. The 6-mm wells were made in agar medium (GYCa for Xanthomonas campestris or BP for other bacteria). Bacterial suspensions were distributed over the agar surface, and the tested compound’s solution (150 μL) was added to each well. The width of growth inhibition zones around the wells was determined after incubation for 36–40 h.

[1] = test system: Pectobacterium atrosepticum 1043; test: Agar-well diffusion, bactericidal activity; settings: Pectobacterium atrosepticum, 1043; 2 mM/L; average of 3 experiments; read-out: width of the inhibition zone (mm), P. atrosepticum
Excerpt: as §1, §2

[2] = test system: Pectobacterium carotovorum subsp. carotovorum MI; test: Agar-well diffusion, bactericidal activity; settings: Pectobacterium carotovorum, 2 mM/L
Excerpt: as §1, §2

[3] = test system: Pseudomonas fluorescens EL-2.1; test: Agar-well diffusion, bactericidal activity; settings: Pseudomonas fluorescens, EL2.1; 2 mM/L; average of 3 experiments; read-out: width of the inhibition zone (mm), Ps. fluorescens
Excerpt: as §1, §2

[4] = test system: Xanthomonas campestris B-610; test: Agar-well diffusion, bactericidal activity; settings: Xanthomonas campestris
Protocol: Bacteria M. luteus, P. carotovorum subsp. carotovorum, P. atrosepticum, and P. fluorescens were grown in a meat–peptone medium (BP), and X. campestris was grown in the medium with glucose, yeast extract, and calcium carbonate (GYCa). Solid media contained Bacto agar (18 g/L); pH was adjusted to 7.2–7.4. […] For inoculum preparation, both fungal strains were initially grown on the agar GPY in Petri dishes and then transferred into the seed medium by punching out 5 mm of the agar plate culture with a self-designed cutter.
as §2

[5] = test system: five representative phytopathogens; test: Agar-well diffusion, bactericidal activity over the panel of phytopathogens; settings: 36 h, 2 mM solutions; dependent on the test system used; read-out: inhibition zone width (mm), range over the test systems
Excerpt: as §1, §2

[6] = test system: Fusarium oxysporum IBPPM 543; test: Mycelial radial growth inhibition; settings: for inhibition of growth at 1 µM: 1 nmol/mL; for inhibition of growth at 1 µM / inhibition of growth at 5 µM / inhibition of growth at 20 µM / inhibition of growth at 40 µM: read-out: Inhibition value, I (%); for inhibition of growth at 5 µM: 5 nmol/mL; for inhibition of growth at 20 µM: 20 nmol/mL; for inhibition of growth at 40 µM: 40 nmol/mL
Excerpt: as §1
(§3) For the fungicidal activity analysis, radial growth (colony diameters) of the fungi on a solid medium in the absence and in the presence of the compounds 5a–e and 7a–c solutions at various concentrations were compared. The method consisted of the following: A sterile GPY agar medium (20.0 mL), which was melted and then allowed to cool to approximately 60 °C, was mixed with the precisely measured volumes of the solutions under question and poured into a sterile Petri dish (90 mm i.d.). After the solidification of GPY agar, the media were inoculated by the fungus using 10-day-old cultures of F. oxysporum or P. cactorum. The inoculation was conducted by transferring a 5-mm (i.d.) GPY-agar block covered with mycelium to the center of the Petri dish, followed by incubation in a thermostat at 27 °C. The fungicidal effect was scored by the size of the mycelium colony on a Petri dish compared to the control without fungicidal admixtures to GPY agar. Each treatment was performed in at least four replicates in two independent experiments. The observation period ended when the control Petri dish was filled with mycelium (usually after 12 days). […] The solutions of the compounds were prepared with a concentration of 2 mmol/L (stock solution). For comparison, test compounds were also commonly applied as disinfecting agents, and antibiotics were used as a positive control.

[7] = test system: Phytophthora cactorum VKM F-985; test: Mycelial radial growth inhibition; settings: for inhibition of growth at 3 µM: 3 nmol/mL; for inhibition of growth at 3 µM / inhibition of growth at 7 µM / inhibition of growth / inhibition of growth at 40 µM: read-out: Inhibition value, I (%); for inhibition of growth at 7 µM: 7 nmol/mL; for inhibition of growth: 27 nmol/mL; for inhibition of growth at 40 µM: 40 nmol/mL
Excerpt: as §1, §3

[8] = Fusarium oxysporum, IBPPM543, 72 h, age of the fungus 3 days
[9] = Fusarium oxysporum, IBPPM543, 120 h, age of the fungus 5 days
[10] = Fusarium oxysporum, IBPPM543, 168 h, age of the fungus 7 days
[11] = Fusarium oxysporum, IBPPM543, 216 h, age of the fungus 9 days
[12] = Phytophthora cactorum, 72 h, age of the fungus 3 days
[13] = Phytophthora cactorum, 120 h, age of the fungus 5 days
[14] = Phytophthora cactorum, 168 h, age of the fungus 7 days
[15] = Phytophthora cactorum, 216 h, age of the fungus 9 days

## Cc1ccc[n+](CC(=O)N/N=C2\C(=O)N(Cc3c(F)cccc3Cl)c3ccccc32)c1C [Compound 7b]
Micrococcus luteus B-109; B109, 2 mM/L, average of 3 experiments, read-out: width of the inhibition zone (mm), M. luteus
  zone of inhibition at 2000 µM: 7 mm
Micrococcus luteus B-109; B109, Table S3, 2 mM/L, read-out: Inhibition zone width (mm), not less
  zone of inhibition at 2000 µM: ≥ 7 mm
[1]
  zone of inhibition at 2000 µM: 4 mm
[2]; average of 3 experiments, read-out: width of the inhibition zone (mm), P. carotovorum subsp. carotovorum
  zone of inhibition at 2000 µM: 5 mm
[2]; Table S3, read-out: Inhibition zone width (mm), not less
  zone of inhibition at 2000 µM: ≥ 5 mm
[3]
  zone of inhibition at 2000 µM: 4.5 mm
[4]; B610, 2 mM/L, average of 3 experiments, read-out: width of the inhibition zone (mm), X. campestris
  zone of inhibition at 2000 µM: 7 mm
[4]; B610, Table S3, 2 mM/L, read-out: Inhibition zone width (mm), not less
  zone of inhibition at 2000 µM: ≥ 7 mm
[5]
  zone of inhibition at 2000 µM: 4 to 7 mm
[6]; [8]
  inhibition of growth at 1 µM: 13%
  inhibition of growth at 5 µM: 32%
  inhibition of growth at 20 µM: 35%
  inhibition of growth at 40 µM: 55%
[6]; Fusarium oxysporum, IBPPM543, 120 h, day 5, read-out: EC50, µg/mL at Day 5, F. oxysporum
  EC50: ≤ 21 µg/mL
[6]; [9]
  inhibition of growth at 1 µM: 15%
  inhibition of growth at 5 µM: 29%
  inhibition of growth at 20 µM: 35%
  inhibition of growth at 40 µM: 52%
[6]; [10]
  inhibition of growth at 1 µM: 10%
  inhibition of growth at 5 µM: 20%
  inhibition of growth at 20 µM: 30%
  inhibition of growth at 40 µM: 43%
[6]; [11]
  inhibition of growth at 1 µM: 11%
  inhibition of growth at 5 µM: 13%
  inhibition of growth at 20 µM: 25%
  inhibition of growth at 40 µM: 39%
[6]; same culture age (5 days)
  fungicidal action stronger than N-cetylpyridinium chloride: 7.0 times
  inhibition of Fusarium growth greater than fludioxonil: 4.1 times
[7]; 5 days of growth
  antagonistic effect superior to that of N-cetylpyridinium chloride: 1.3 times
  antagonistic effect superior to that of fludioxonil: 1.1 times
[7]; [12]
  inhibition of growth at 3 µM: 15%
  inhibition of growth at 7 µM: 25%
  inhibition of growth: 30%
  inhibition of growth at 40 µM: 39%
[7]; Phytophthora cactorum, 120 h, day 5, read-out: EC50, µg/mL at Day 5, P. cactorum
  EC50: ≤ 28 µg/mL
[7]; [13]
  inhibition of growth at 3 µM: 12%
  inhibition of growth at 7 µM: 25%
  inhibition of growth: 32%
  inhibition of growth at 40 µM: 40%
[7]; [14]
  inhibition of growth at 3 µM: 9%
  inhibition of growth at 7 µM: 22%
  inhibition of growth: 28%
  inhibition of growth at 40 µM: 37%
[7]; [15]
  inhibition of growth at 3 µM: 7%
  inhibition of growth at 7 µM: 16%
  inhibition of growth: 21%
  inhibition of growth at 40 µM: 35%

— paper PMC10607100, “Anticancer and Antiphytopathogenic Activity of Fluorinated Isatins and Their Water-Soluble Hydrazone Derivatives” (International Journal of Molecular Sciences, 2023)
